#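 Following 48 hours of exposure in 96-well plates, responses at five concentrations were used to interpolate endpoints linearly. Here, GI50 denotes the concentration required for 50% inhibition of growth.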 Active and inactive are the calls of the source. No stated cut-off is given here; in the data, active = GI50 up to about 1.1 µM and inactive = higher.
# Columns and labels:
# Assay in all cases: NCI anticancer screen, dose series, 48 h
# SK-OV-3 = system: SK-OV-3
# MOLT-4 = system: MOLT-4
# SR = system: SR
# CAKI-1 = system: CAKI-1
# COLO 205 = system: COLO 205
# T47D = system: T47D
# SF-539 = system: SF-539
# NCI-H460 = system: NCI-H460
# SK-MEL-5 = system: SK-MEL-5
# 786-0 = system: 786-0
# MDA-N = system: MDA-N
# UACC-62 = system: UACC-62
# M14 = system: M14
# TK-10 = system: TK-10
# HCT-15 = system: HCT-15
# RXF 393 = system: RXF 393
# KM12 = system: KM12
# EKVX = system: EKVX
# UACC-257 = system: UACC-257
# SN12C = system: SN12C
# SW-620 = system: SW-620
# CCRF-CEM = system: CCRF-CEM
# SK-MEL-2 = system: SK-MEL-2
# HCT-116 = system: HCT-116
# K562 = system: K562
# BT-549 = system: BT-549
# SF-268 = system: SF-268
# NCI-H226 = system: NCI-H226
# OVCAR-8 = system: OVCAR-8
# SNB-19 = system: SNB-19
# MDA-MB-435 = system: MDA-MB-435
# HOP-92 = system: HOP-92
# A498 = system: A498
# HL-60 = system: HL-60
# PC-3 = system: PC-3
# SNB-75 = system: SNB-75
# U-251 = system: U-251
# SK-MEL-28 = system: SK-MEL-28
# IGROV-1 = system: IGROV-1
# Malme-3M = system: Malme-3M
# A549 = system: A549
# NCI/ADR-RES = system: NCI/ADR-RES
# SF-295 = system: SF-295
# DU-145 = system: DU-145
# ACHN = system: ACHN
# OVCAR-4 = system: OVCAR-4
# UO-31 = system: UO-31
# OVCAR-5 = system: OVCAR-5
# RPMI-8226 = system: RPMI-8226
# MDA-MB-231 = system: MDA-MB-231
# OVCAR-3 = system: OVCAR-3
# Hs-578T = system: Hs-578T
# NCI-H23 = system: NCI-H23
# MCF7 = system: MCF7
# HOP-62 = system: HOP-62
# HCC 2998 = system: HCC 2998
# NCI-H522 = system: NCI-H522
# HT-29 = system: HT-29
# LOX IMVI = system: LOX IMVI
# M19-MEL = system: M19-MEL
# LXFL 529 = system: LXFL 529
# SNB-78 = system: SNB-78
# DMS-114 = system: DMS-114
# KM-20L2 = system: KM-20L2
# DLD-1 = system: DLD-1
smiles,measurement,setting,value
COC(=O)[C@@H]1C=CCN1S(=O)(=O)c1ccc(C)cc1,GI50,SK-OV-3,> 100 µM (inactive)
same,GI50,MOLT-4,37.4 µM (inactive)
same,GI50,SR,20.5 µM (inactive)
same,GI50,CAKI-1,20.2 µM (inactive)
same,GI50,COLO 205,> 100 µM (inactive)
same,GI50,T47D,> 100 µM (inactive)
same,GI50,SF-539,60.1 µM (inactive)
same,GI50,NCI-H460,42.5 µM (inactive)
same,GI50,SK-MEL-5,59.6 µM (inactive)
same,GI50,786-0,32.9 µM (inactive)
same,GI50,MDA-N,29.2 µM (inactive)
same,GI50,UACC-62,38 µM (inactive)
same,GI50,M14,48.1 µM (inactive)
same,GI50,TK-10,> 100 µM (inactive)
same,GI50,HCT-15,37.5 µM
same,GI50,RXF 393,50.5 µM (inactive)
same,GI50,KM12,> 100 µM (inactive)
same,GI50,EKVX,> 100 µM (inactive)
same,GI50,UACC-257,> 100 µM (inactive)
same,GI50,SN12C,> 100 µM (inactive)
same,GI50,SW-620,> 100 µM (inactive)
same,GI50,CCRF-CEM,21.8 µM (inactive)
same,GI50,SK-MEL-2,> 100 µM (inactive)
same,GI50,HCT-116,34.2 µM (inactive)
same,GI50,K562,31.9 µM (inactive)
same,GI50,BT-549,> 100 µM (inactive)
same,GI50,SF-268,> 100 µM (inactive)
same,GI50,NCI-H226,> 100 µM (inactive)
same,GI50,OVCAR-8,> 100 µM (inactive)
same,GI50,SNB-19,> 100 µM (inactive)
same,GI50,MDA-MB-435,13.2 µM (inactive)
same,GI50,HOP-92,55.5 µM (inactive)
same,GI50,A498,> 100 µM (inactive)
same,GI50,HL-60,24.2 µM (inactive)
same,GI50,PC-3,> 100 µM (inactive)
same,GI50,SNB-75,> 100 µM (inactive)
same,GI50,U-251,31.1 µM (inactive)
same,GI50,SK-MEL-28,93.1 µM (inactive)
same,GI50,IGROV-1,> 100 µM (inactive)
same,GI50,Malme-3M,71.6 µM (inactive)
same,GI50,A549,> 100 µM (inactive)
same,GI50,NCI/ADR-RES,> 100 µM (inactive)
same,GI50,SF-295,> 100 µM (inactive)
same,GI50,DU-145,> 100 µM (inactive)
same,GI50,ACHN,> 100 µM (inactive)
same,GI50,OVCAR-4,> 100 µM (inactive)
same,GI50,UO-31,> 100 µM (inactive)
same,GI50,OVCAR-5,> 100 µM (inactive)
same,GI50,RPMI-8226,> 100 µM (inactive)
same,GI50,MDA-MB-231,> 100 µM (inactive)
same,GI50,OVCAR-3,50.8 µM (inactive)
same,GI50,Hs-578T,> 100 µM (inactive)
same,GI50,NCI-H23,> 100 µM (inactive)
same,GI50,MCF7,> 100 µM (inactive)
same,GI50,HOP-62,> 100 µM (inactive)
same,GI50,HCC 2998,70.6 µM (inactive)
same,GI50,NCI-H522,98.4 µM (inactive)
same,GI50,HT-29,> 100 µM (inactive)
same,GI50,LOX IMVI,> 100 µM (inactive)
CCCCCCCCCCCCCB(O)O,GI50,SK-OV-3,> 100 µM (inactive)
same,GI50,M19-MEL,> 100 µM (inactive)
same,GI50,COLO 205,> 100 µM (inactive)
same,GI50,SF-539,> 100 µM (inactive)
same,GI50,NCI-H460,85.5 µM (inactive)
same,GI50,786-0,95.5 µM (inactive)
same,GI50,UACC-62,> 100 µM (inactive)
same,GI50,TK-10,> 100 µM (inactive)
same,GI50,UACC-257,> 100 µM (inactive)
same,GI50,SN12C,66.2 µM (inactive)
same,GI50,SW-620,61.5 µM (inactive)
same,GI50,CCRF-CEM,57.8 µM (inactive)
same,GI50,LXFL 529,81.8 µM (inactive)
same,GI50,SF-268,69.2 µM (inactive)
same,GI50,NCI-H226,96.2 µM (inactive)
same,GI50,OVCAR-8,> 100 µM (inactive)
same,GI50,SNB-78,58.1 µM (inactive)
same,GI50,A498,50.2 µM (inactive)
same,GI50,U-251,60.4 µM (inactive)
same,GI50,SK-MEL-28,> 100 µM (inactive)
same,GI50,IGROV-1,> 100 µM (inactive)
same,GI50,Malme-3M,> 100 µM (inactive)
same,GI50,SF-295,> 100 µM (inactive)
same,GI50,DMS-114,65.5 µM (inactive)
same,GI50,KM-20L2,60.7 µM (inactive)
same,GI50,DLD-1,65.2 µM (inactive)
same,GI50,OVCAR-3,50.7 µM (inactive)
same,GI50,HOP-62,> 100 µM (inactive)
same,GI50,NCI-H522,51.3 µM (inactive)
same,GI50,LOX IMVI,> 100 µM (inactive)
